Measured values from patent publication US9408393B2, “Bismuth-thiols as antiseptics for agricultural, industrial and other uses” (Microbion Corporation, priority 2010, dated 2016).
Values after ≈ are worked out from the molar mass of the structure shown.

Columns and labels:
S. aureus strains = assay: In vitro inhibition from PMMA cement bead vehicle; type: cell-based, Staphylococcus aureus; details: with and without Tobramicin and Vancomycin
S. epidermidis biofilm = assay: Biofilm prevention concentration (BPC), BisEDT and antibiotics; type: cell-based, Staphylococcus epidermidis; details: regardless of antibiotic employed
Procedure: S. epidermidis grown in TSB+2% glucose in polystyrene plates for 48 h at 37° C. Gatifloxacin (GF), clindamycin (CM), minocycline (MC), gentamicin (GM), vancomycin (VM), cefazolin (CZ), nafcillin (NC), and rifampicin (RP). […]

S. aureus = assay: Contaminated open fracture, rat femur critical defect model; type: in vivo; details: BT gel 5 mg/ml, 1 ml in defect, with Cefazolin 5 mgKg^−1 s.c. twice daily 3 days, day 14
From the text: Standard errors of the mean are shown as error bars. Animals euthanized early are not excluded from the analysis, however samples from one animal in group 2 have been excluded due to gross contamination.
The aim of this study was to determine whether BTs will reduce infection in a contaminated open fracture model either on their own or with antibiotics. The contaminated rat femur critical defect model is a well-accepted model and was used for the experiments described in this Example. This model offers a standardized model for comparing various possible treatments and their effects on reducing infection and/or improving healing.
Three formulations of microparticulate BTs were produced in a clinically useful hydrogel gel form as described herein.
Two treatment arms were used: in the first arm, BT was used singularly; in the second arm BT was used in conjunction with a systemic antibiotic (ABx).
Six hours after inoculation with S. aureus, the wound was debrided, irrigated with saline and 1 ml of BT gel inserted within the defect.
Six hours after inoculation with S. aureus, the wound was debrided, irrigated with saline and 1 ml of BT gel added inserted within the defect. The antibiotic used was Cefazolin at a dose equivalent to 5 mgKg^−1 delivered via sub-cutaneous injection twice daily for a total of 3-days following the injury. The first dose was administered immediately prior to debridement.
Six hours after inoculation with S. aureus, the wound was debrided and irrigated with saline. The control animals were also treated with Cefazolin as per the regime described above.
The procedure for the in vivo rat injury model was performed as described by Chen et al. (2002 J. Orthop. Res. 20:142; 2005 J. Orthop. Res. 23:816; 2006 J. Bone Joint Surg. Am. 88:1510; 2007 J. Orthop. Trauma 21:693). The rats were anesthetized and prepped for surgery. The anterolateral aspect of the femoral shaft was exposed through a 3-cm incision. The periosteum and attached muscle was stripped from the bone. A polyacetyl plate (27×4×4 mm) was placed on the anterolateral surface of the femur. The plates were predrilled to accept 0.9-mm diameter threaded Kirschner wires. The bases of these plates were formed to fit the contour of the femoral shaft. Pilot holes were drilled through both cortices of the femur using the plate as a template and threaded Kirschner wire was inserted through the plate and femur. The notches that were 6 mm apart on the plate served as a guide for bone removal. A small oscillating saw was used to create the defect while the tissue was cooled by continuous irrigation in an effort to prevent thermal damage.
Several groups of 10 animals each were inoculated with 1×10^5 CFU of S. aureus and treated with BT alone or in combination with antibiotics 6 hours post-inoculation as described above. The groups were as follows: Bis-EDT gel; MB-11 gel; MB-8-2 gel; Bis-EDT gel & Abx; MB-11 gel & Abx; MB-8-2 gel & Abx; Control (Abx alone).
Animals were euthanized 14 days after surgery and bone and hardware sent for microbiological analysis, the results of which are shown in FIG. 7.

[1] = Uninoculated solubility control plate (drug precipitation in test media); type: physicochemical; details: uninoculated solubility control plates; BisEDT observation at 32 μg/mL
resistant E. coli = assay: MIC in Mueller-Hinton II broth, antibiotic + BisEDT; type: cell-based, Escherichia coli; details: Escherichia coli, read-out: Drug + BE MIC, Chloramphenicol/Ampicillin resistant E. coli; BE 0.33 μg/ml
From the text: Chloramphenicol and ampicillin resistant Escherichia coli were made sensitive to these drugs by the addition of subMIC BisEDT (Table 24).
Tetracycline resistant Escherichia coli were made sensitive to doxycycline by the addition of subMIC BisEDT (Table 25).

E. coli = assay: Broth dilution MIC, BT-antibiotic combinations; type: cell-based; details: Escherichia coli; E. coli Ampicillin/Chloramphenicol resistant; antibiotic alone
Procedure: Materials & Methods. Susceptibility studies were performed by broth dilution in 96-well tissue culture plates (Nalge Nunc International, Denmark) in accordance with NCCLS protocols (National Committee for Clinical Laboratory Standards. (1997). Methods for Dilution Antimicrobial Susceptibility Tests for Bacteria that Grow Aerobically: Approved Standard M7-A2 and Informational Supplement M100-S10. NCCLS, Wayne, Pa., USA).
Briefly, overnight bacterial cultures were used to prepare 0.5 McFarland standard suspensions, which were further diluted 1:50 (˜2×10^6 cfu/mL) in cation-adjusted Mueller-Hinton broth medium (BBL, Cockeysville, Md., USA). […] Cultures were incubated for 24 h at 37° C. and turbidity was assessed by absorption at 630 nm using an ELISA plate reader (Biotek Instruments, Winooski, Vt., USA) according to the manufacturer's recommendations. […] Viable bacterial counts (cfu/mL) were determined by standard plating on nutrient agar.
The checkerboard method was used to assess the activity of antimicrobial combinations. The fractional inhibitory concentration index (FICI) and the fractional bactericidal concentration index (FBCI) were calculated, according to Eliopoulos et al. (Eliopoulos and Moellering, (1996) Antimicrobial combinations. In Antibiotics in Laboratory Medicine (Lorian, V., Ed.), pp. 330-96, Williams and Wilkins, Baltimore, Md., USA). […]

[2] = tested on: Streptococcus pneumoniae (SP, PRSP); assay: Single-point BisEDT-antibiotic combination FICI; details: PRSP 5348
Escherichia coli = assay: Single-point BisEDT-antibiotic combination FICI; type: cell-based
Klebsiella pneumoniae = assay: Single-point BisEDT-antibiotic combination FICI; type: cell-based; details: KP 1231
[3] = tested on: Staphylococcus aureus (MSSA, MRSA, CA-MRSA); assay: microbe, parasite or virus in culture; type: cell-based
Pseudomonas aeruginosa = assay: Single-point BisEDT-antibiotic combination FICI; type: cell-based; details: PA 1380
Acinetobacter baumanii = assay: Single-point BisEDT-antibiotic combination FICI; type: cell-based; details: Abau 2594
Burkholderia cepacia = assay: Single-point BisEDT-antibiotic combination FICI; type: cell-based; details: Bcep 1756
Enterococcus faecalis = assay: Single-point BisEDT-antibiotic combination FICI; type: cell-based; details: E Fc 3121
Bukholderia multivorans = assay: Single-point BisEDT-antibiotic combination FICI; type: cell-based; details: Bmult 5665
[4] = tested on: Staphylococcus aureus (SA, MRSA); assay: Single-point BisEDT-antibiotic combination FICI; type: cell-based
[5] = tested on: Enterococcus faecium (VSEfm, VREfm); assay: microbe, parasite or virus in culture; type: cell-based; details: vancomycin-resistant Enterococcus faecium (VREfm)
[6] = neutral pH; cited from earlier work

C1C[S][Bi]([S]CC[S][Bi]2[S]CC[S]2)[S]1 [BisEDT, bismuth-1,2-ethanedithiol]
Effect on S. aureus strains in vitro from PMMA cement beads (S. aureus strains): inhibitory effects
Biofilm at 0.1 μg/ml BisEDT (S. epidermidis biofilm): no biofilm was detected
S. aureus infection detected on hardware, effect on Cefazolin activity (S. aureus): did not appear to affect Cefazolin activity
S. aureus infection of injured bone, effect on Cefazolin activity (S. aureus): enhanced
Solubility in MIC test media [1]: trace precipitate

O=C(N[C@H](CO)[C@H](O)c1ccc([N+](=O)[O-])cc1)C(Cl)Cl [CM, chloramphenicol]
MIC (resistant E. coli): 12.7 µg/mL
MIC (E. coli): 220 µg/mL

C[C@@H](O)[C@H]1C(=O)N2C(C(=O)O)=C(SCCN=CN)C[C@H]12 [Imipenem]
FICI, single-point BisEDT-antibiotic combination [2]: 0.43
FICI, single-point BisEDT-antibiotic combination (Escherichia coli; EC 102): 1.11
FICI, single-point BisEDT-antibiotic combination (Escherichia coli; EC 2232): 1.29
FICI, single-point BisEDT-antibiotic combination (Klebsiella pneumoniae): 1.23
MIC90 ([3]; MSSA clinical isolates): 0.03 µg/mL (≈ 0.1 µM)
MIC ([3]; S. aureus 29213, one value on a single run, one dilution below published QC range, read-out: MIC, quality control strain): 0.008 µg/mL (≈ 0.0267 µM)
FICI, single-point BisEDT-antibiotic combination (Pseudomonas aeruginosa): 1.12
FICI, single-point BisEDT-antibiotic combination (Acinetobacter baumanii): 0.81
FICI, single-point BisEDT-antibiotic combination (Burkholderia cepacia): 0.73
FICI, single-point BisEDT-antibiotic combination (Enterococcus faecalis): 0.73
FICI, single-point BisEDT-antibiotic combination (Bukholderia multivorans): 1.23
FICI, single-point BisEDT-antibiotic combination ([4]; MRSA 773): 1.48
FICI, single-point BisEDT-antibiotic combination ([4]; SA 100): 0.67

CC(=O)NC[C@H]1CN(c2ccc(N3CCOCC3)c(F)c2)C(=O)O1 [Linezolid]
FICI, single-point BisEDT-antibiotic combination [2]: 1.11
MIC90 [5]: 2 µg/mL (≈ 5.93 µM)
FICI, single-point BisEDT-antibiotic combination (Enterococcus faecalis): 1.23
FICI, single-point BisEDT-antibiotic combination ([4]; MRSA 773): 1.23
FICI, single-point BisEDT-antibiotic combination ([4]; SA 100): 1.23

Zinc pyrithione
Solubility in water [6]: 8 ppm
